According to article PMC5424325, “Effect of health foods on cytochrome P450-mediated drug metabolism” (Journal of Pharmaceutical Health Care and Sciences, 2017):

Assays:
CYP2C19 [1] = biological target: T1, CYP2C19 (Homo sapiens, UniProt P33261); test: Kinetic analysis of omeprazole 5-hydroxylation in Ad-P450 cells; format: in vitro ADME
T1 construct: expressed in transfected cells; host or cells: HepG2 cells infected with Ad-CYP2C19 (2 MOI) together with the four other P450 adenoviruses
Procedure: (§1) The cells were seeded in a 48-well tissue culture plate (Becton Dickinson) at 5.0 × 10^4 cells/well. After 48 h, the cells were simultaneously infected with Ad-CYP1A2 at 5 multiplicity of infection (MOI), Ad-CYP2C9 at 1 MOI, Ad-CYP2C19 at 2 MOI, Ad-CYP2D6 at 0.05 MOI, and Ad-CYP3A4 at 10 MOI. […] After shaking, the mixtures were centrifuged at 2500 × g for 10 min and the supernatants were evaporated to dryness at 60 °C in a block incubator. The residues were dissolved in acetonitrile containing 0.1% acetic acid and the solutions were subjected to liquid chromatography/tandem mass spectrometry (LC-MS/MS) analysis.
(§2) The Prominence system (Shimadzu Corporation, Kyoto, Japan) equipped with LCMS-8040 system (Shimadzu Corporation) was used for LC-MS/MS analysis with an electrospray ionization interface. The ionization mode used was positive in the multiple reaction monitoring. The chromatographic separation was performed on Xterra MS C18 columns (2.1 mm × 100 mm, 5 μm) (Waters, Milford, MA, USA). The column oven temperature was maintained at 40 °C. The mobile phase consisted of acetonitrile containing 0.1% acetic acid and water containing 0.1% acetic acid (85:15) with a flow rate of 200 μL/min. […]
(§3) The Km, Vmax, and IC50 values were determined using Prism software (version 6.0; GraphPad Software Inc., San Diego, CA, USA).

CYP2D6 [2] = biological target: T2, CYP2D6 (Homo sapiens, UniProt P10635); test: CYP2D6 inhibition (dextromethorphan O-demethylation) in Ad-P450 cells, substrate cocktail; format: in vitro ADME; conditions: read-out: Residual activity CYP2D6
T2 construct: expressed in transfected cells; host or cells: HepG2 cells infected with Ad-CYP2D6 (0.05 MOI) together with the four other P450 adenoviruses

CYP3A4 [3] = biological target: T3, CYP3A4 (Homo sapiens, UniProt P08684); test: CYP3A4 inhibition (midazolam 1′-hydroxylation) in Ad-P450 cells, substrate cocktail; format: in vitro ADME; conditions: probe midazolam (1′-hydroxylation), read-out: Residual activity CYP3A4
T3 construct: expressed in transfected cells; host or cells: HepG2 cells infected with Ad-CYP3A4 (10 MOI) together with the four other P450 adenoviruses

CYP2C19 [4] = biological target: T1, CYP2C19; test: CYP2C19 inhibition (omeprazole 5-hydroxylation) in Ad-P450 cells, substrate cocktail; format: in vitro ADME; conditions: probe omeprazole (5-hydroxylation), read-out: Residual activity CYP2C19
CYP1A2 [5] = biological target: T4, CYP1A2 (Homo sapiens, UniProt P05177); test: CYP1A2 inhibition (phenacetin O-deethylation) in Ad-P450 cells, substrate cocktail; format: in vitro ADME; parameters: expressed in transfected cells; host or cells: HepG2 cells infected with Ad-CYP1A2 (5 MOI) together with the four other P450 adenoviruses; conditions: probe phenacetin (O-deethylation), read-out: Residual activity CYP1A2
T4 sequence (P05177 1-516): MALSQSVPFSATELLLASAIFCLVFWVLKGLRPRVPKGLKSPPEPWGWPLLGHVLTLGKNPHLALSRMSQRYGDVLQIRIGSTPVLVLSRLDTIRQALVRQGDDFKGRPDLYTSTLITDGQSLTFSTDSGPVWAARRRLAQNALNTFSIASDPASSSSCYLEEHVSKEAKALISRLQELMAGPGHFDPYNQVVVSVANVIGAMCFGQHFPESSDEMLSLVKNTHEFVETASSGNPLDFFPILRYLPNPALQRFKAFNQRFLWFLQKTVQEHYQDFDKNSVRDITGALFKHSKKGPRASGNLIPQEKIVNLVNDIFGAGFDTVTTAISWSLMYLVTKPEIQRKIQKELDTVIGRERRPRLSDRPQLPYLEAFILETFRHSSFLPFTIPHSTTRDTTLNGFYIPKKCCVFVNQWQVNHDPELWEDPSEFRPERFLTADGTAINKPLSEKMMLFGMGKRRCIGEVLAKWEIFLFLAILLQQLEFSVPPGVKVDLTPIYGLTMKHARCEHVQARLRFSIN

CYP3A4 [6] = conditions: cited from earlier work
CYP1A2 [7] = conditions: cited from earlier work
CYP2C9 [8] = conditions: competitive inhibitor; cited from earlier work
CYP1A2 [9] = biological target: T4, CYP1A2; conditions: Phenacetin O-deethylation, Ad-P450 cells, 5 h
Procedure: as §1, §2, §3

CYP3A4 [10] = biological target: T3, CYP3A4; test: Kinetic analysis of midazolam 1′-hydroxylation in Ad-P450 cells; format: in vitro ADME
Procedure: as §1, §2, §3

CYP2D6 [11] = biological target: T2, CYP2D6; test: Kinetic analysis of dextromethorphan O-demethylation in Ad-P450 cells; format: in vitro ADME
Procedure: as §1, §2, §3

CYP2C9 [12] = biological target: T5, CYP2C9 (Homo sapiens, UniProt P11712); test: Kinetic analysis of diclofenac 4′-hydroxylation in Ad-P450 cells; format: in vitro ADME
T5 construct: expressed in transfected cells; host or cells: HepG2 cells infected with Ad-CYP2C9 (1 MOI) together with the four other P450 adenoviruses
Procedure: The column oven temperature was maintained at 40 °C.

T1 sequence (P33261 whole entry): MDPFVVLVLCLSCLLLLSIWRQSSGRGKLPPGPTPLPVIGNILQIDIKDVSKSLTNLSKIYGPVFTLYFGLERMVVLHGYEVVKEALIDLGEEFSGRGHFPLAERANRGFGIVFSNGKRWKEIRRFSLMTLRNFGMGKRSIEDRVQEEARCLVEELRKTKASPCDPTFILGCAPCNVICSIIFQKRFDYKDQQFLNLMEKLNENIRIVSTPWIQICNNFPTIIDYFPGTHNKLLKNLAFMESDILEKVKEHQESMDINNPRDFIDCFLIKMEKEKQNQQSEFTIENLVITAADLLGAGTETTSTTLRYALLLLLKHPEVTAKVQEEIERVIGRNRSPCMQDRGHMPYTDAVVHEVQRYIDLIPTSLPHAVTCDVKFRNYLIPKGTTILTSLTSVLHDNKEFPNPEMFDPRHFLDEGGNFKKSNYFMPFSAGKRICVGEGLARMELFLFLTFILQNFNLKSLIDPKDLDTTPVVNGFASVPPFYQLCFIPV
T2 sequence (P10635 whole entry): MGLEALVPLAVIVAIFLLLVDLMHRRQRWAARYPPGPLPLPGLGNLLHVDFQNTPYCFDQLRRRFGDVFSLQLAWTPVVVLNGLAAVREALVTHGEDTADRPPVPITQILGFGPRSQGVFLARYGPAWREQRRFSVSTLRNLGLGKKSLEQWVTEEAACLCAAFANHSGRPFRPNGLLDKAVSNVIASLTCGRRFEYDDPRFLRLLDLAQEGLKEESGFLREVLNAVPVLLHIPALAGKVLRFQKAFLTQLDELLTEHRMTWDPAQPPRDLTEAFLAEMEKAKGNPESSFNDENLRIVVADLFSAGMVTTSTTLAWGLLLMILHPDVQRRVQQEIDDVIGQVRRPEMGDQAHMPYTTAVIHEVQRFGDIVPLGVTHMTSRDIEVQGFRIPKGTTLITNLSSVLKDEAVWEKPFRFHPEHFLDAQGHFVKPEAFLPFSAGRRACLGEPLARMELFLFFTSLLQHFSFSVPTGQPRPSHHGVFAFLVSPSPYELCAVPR
T3 sequence (P08684 whole entry): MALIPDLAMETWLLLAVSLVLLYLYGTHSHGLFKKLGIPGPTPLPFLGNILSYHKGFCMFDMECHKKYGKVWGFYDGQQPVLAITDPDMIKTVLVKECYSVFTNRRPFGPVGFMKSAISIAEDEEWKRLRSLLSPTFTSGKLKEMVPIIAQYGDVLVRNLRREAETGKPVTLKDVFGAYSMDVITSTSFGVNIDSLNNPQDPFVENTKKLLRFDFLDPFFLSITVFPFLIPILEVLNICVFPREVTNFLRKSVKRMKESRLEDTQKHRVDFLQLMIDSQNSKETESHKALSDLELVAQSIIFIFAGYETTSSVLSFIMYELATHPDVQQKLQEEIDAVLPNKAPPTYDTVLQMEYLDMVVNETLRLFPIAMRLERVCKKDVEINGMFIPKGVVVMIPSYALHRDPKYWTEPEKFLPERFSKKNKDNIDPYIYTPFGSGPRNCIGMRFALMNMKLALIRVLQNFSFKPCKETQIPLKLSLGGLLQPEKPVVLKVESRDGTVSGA
T5 sequence (P11712 whole entry): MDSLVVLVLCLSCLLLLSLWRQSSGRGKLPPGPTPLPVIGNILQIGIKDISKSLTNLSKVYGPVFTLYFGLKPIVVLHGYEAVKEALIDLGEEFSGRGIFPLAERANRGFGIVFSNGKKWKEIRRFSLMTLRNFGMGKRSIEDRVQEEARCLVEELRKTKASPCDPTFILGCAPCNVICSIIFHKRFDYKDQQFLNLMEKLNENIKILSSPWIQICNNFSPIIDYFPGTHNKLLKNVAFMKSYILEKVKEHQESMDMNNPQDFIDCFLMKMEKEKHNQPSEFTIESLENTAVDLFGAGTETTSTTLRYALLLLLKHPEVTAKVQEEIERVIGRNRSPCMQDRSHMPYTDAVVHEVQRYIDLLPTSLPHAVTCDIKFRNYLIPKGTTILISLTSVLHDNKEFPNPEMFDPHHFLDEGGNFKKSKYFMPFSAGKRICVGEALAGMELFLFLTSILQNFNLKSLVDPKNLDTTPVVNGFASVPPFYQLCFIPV

Question: With `COc1ccc2[nH]c([S+]([O-])Cc3ncc(C)c(OC)c3C)nc2c1` (stereo not shown) [Omeprazole] as the molecule, how does the Vmax (CYP2C19 [1]; 5 h) read?
Answer: The Vmax was 4.66 pmol/well/hr.

Question: What about the Km at 5 h (CYP2C19 [1]; human) of the same molecule?
Answer: The Km at 5 h was 2750 nM.

Question: For `COc1cc(/C=C/C(=O)CC(=O)/C=C/c2ccc(O)c(OC)c2)ccc1O` [curcumin], which activity at 5 h, 50 μM (CYP2D6 [2]) is on record?
Answer: The activity at 5 h, 50 μM was 71.9%.

Question: And the activity at 5 h, 50 μM (CYP3A4 [3])?
Answer: Its activity at 5 h, 50 μM is 61.9%.

Question: What about the activity at 5 h, 50 μM (CYP2C19 [4]) of the same molecule?
Answer: The activity at 5 h, 50 μM was 72.7%.

Question: What about the activity at 5 h, 50 μM (CYP1A2 [5]) of the same molecule?
Answer: Its activity at 5 h, 50 μM is 58.3%.

Question: What does the source list for `c1cc2c(cc1[C@H]1OC[C@H]3[C@@H]1CO[C@@H]3c1ccc3c(c1)OCO3)OCO2` [Sesamin]?
Answer: Ki (CYP3A4 [6]): 4.2 µM; Ki (CYP1A2 [7]): 75 µM; Ki (CYP2C9 [8]): 24 µM

Question: With `CCOc1ccc(NC(C)=O)cc1` [Phenacetin] as the molecule, how does the Vmax (CYP1A2 [9]) read?
Answer: The Vmax was 100.30 pmol/well/hr.

Question: For `Cc1ncc2n1-c1ccc(Cl)cc1C(c1ccccc1F)=NC2` [Midazolam], which Vmax (CYP3A4 [10]; Midazolam 1′-hydroxylation, Ad-P450 cells, 5 h) is on record?
Answer: Its Vmax is 12.30 pmol/well/hr.

Question: What about the Km at 5 h (CYP3A4 [10]; human) of the same molecule?
Answer: Its Km at 5 h is 1000 nM.

Question: With `COc1ccc2c(c1)[C@]13CCCC[C@@H]1[C@H](C2)N(C)CC3` [Dextromethorphan] as the molecule, how does the Vmax (CYP2D6 [11]; Dextromethorphan O-demethylation, Ad-P450 cells, 5 h) read?
Answer: The Vmax was 1.10 pmol/well/hr.

Question: What about the Km at 5 h (CYP2D6 [11]; human) of the same molecule?
Answer: The Km at 5 h was 17.1 µM.

Question: With `O=C(O)Cc1ccccc1Nc1c(Cl)cccc1Cl` [Diclofenac] as the molecule, how does the Vmax (CYP2C9 [12]; 5 h) read?
Answer: The Vmax was 239.9 pmol/well/hr.

Question: What about the Km at 5 h (CYP2C9 [12]; human) of the same molecule?
Answer: Its Km at 5 h is 5.87 µM.
